Source: article PMC6149722, “Comparison of the Binding of Reversible Inhibitors to Human Butyrylcholinesterase and Acetylcholinesterase: A Crystallographic, Kinetic and Calorimetric Study” (Molecules : A Journal of Synthetic Chemistry and Natural …, 2017)
Where a name gives a salt, the structure may show the parent alone. Read-outs that look alike come from different tables or passages of the source.

What was measured:
hBChE [1] = settings: specificity for BChE; cited from earlier work
hBChE [2] = assay: biochemical; format: binding; settings: ITC KD, hAChE vs hBChE
hBChE [3] = target: hBChE (Homo sapiens, UniProt P06276, N45Q/N483Q/N509Q/N514Q); assay: biochemical; format: binding; settings: for n (±SD), binding stoichiometry / ΔG (±SD), Gibbs free energy of binding / ΔH (±SD), binding heat: hBChE, ITC, 25 °C, pH 7.4
BChE [4] = target: T1, BChE (Homo sapiens, UniProt P06276); assay: Inhibition of second-order substrate hydrolysis by BChE (inhibition constants KI); format: biochemical
T1 construct: Purified human plasma wild-type BChE was a gift from Dr. Oksana Lockridge; tissue gift from Dr. Oksana Lockridge (University of Nebraska Medical Center); host or cells: human plasma
Experimental: To further compare the binding sites of inhibitors with AChE and BChE, we employed an inhibitor competition assay. This assay is designed to detect any ternary complex formed when two inhibitors are added to AChE or BChE simultaneously. The assay is conducted with a substrate like acetylthiocholine whose second-order hydrolysis at low substrate concentrations is diffusion controlled and thus is inhibited by ligands that bind to either the A-site or the P-site (see Figure 7A below). Individual inhibition constants KI were obtained by plotting the ratios of the hydrolysis rate constant kE at various concentrations of one inhibitor (kE + I) to kE in the absence of inhibitor (kE [I] = 0) against inhibitor concentration. Inhibitor competition was then assessed by determining ratios of kE at a fixed concentration ([I1]) of inhibitor 1 and various concentrations ([I2]) of inhibitor 2 (kE + I2) to kE at the same [I1] in the absence of [I2] (kE [I2] = 0) and plotting these ratios against [I2]. These plots were analyzed with Equation (5) (described in the Materials and Methods Section 4.4) to obtain the relative affinity of I1 in its binary complex with enzyme E to I1 in a ternary complex with I2 and E (K12/K1). […].
For enzyme kinetics experiments, purified recombinant hAChE (~1500 units as determined by the supplier) was purchased from Sigma Aldrich (St. Louis, MO, USA). The AChE concentration was calculated using the assumption of 450 units/nmol (4.8 ∆A412/(min × nM)). Purified human plasma wild-type BChE was a gift from Dr. Oksana Lockridge (University of Nebraska Medical Center, Omaha, NE, USA). BChE concentration was calculated assuming 62.5 unit/nmol (0.94 ∆A412/(min × nM)). As defined previously, […] is the amount of BChE that gives 1.0 ∆A/min in the presence of 1.6 × 10^−4 M butyrylthiocholine in a 1.5 mL assay.
Inhibition constants for inhibitors of BChE were determined using a modification of a previously described method. Briefly, varying amounts of inhibitor (in 50 μL of 50% CH3CN(aq)) were added to 1.60 mL of buffer (0.09 M phosphate buffer, pH 8.0), 5,5′-dithio-bis (2-nitrobenzoic acid) (0.32 mM), and butyrylthiocholine substrate (5 μM) in a quartz cuvette of 1 cm path length, and the mixture was zeroed at 412 nm. The reaction was initiated by the addition of 50 μL of BChE (to 0.68 nM) in 0.1% aqueous gelatin. Assays were conducted at 23 °C. The absorbance (A), reflecting the cumulative hydrolysis of the substrate, was recorded every 5–20 s using an Ultraspec 2100 pro ultra violet (UV)-visible spectrophotometer (Fisher Scientific, Toronto, ON, Canada) equipped with Swift II application software. […]
In Equation (1), A412 is absorbance, [E]tot is the total enzyme concentration, kobs = kE[E]tot, and ΔA412 = A412(final) − A412(t = 0). […]

hAChE [5] = target: T2, hAChE (Homo sapiens, UniProt P22303); assay: biochemical; format: binding; settings: for n (±SD), binding stoichiometry / ΔG (±SD), Gibbs free energy of binding / ΔH (±SD), binding heat: hAChE, ITC, 25 °C, pH 8.0
hAChE [6] = target: T2, hAChE; settings: read-out: AChE KI, recalculated from data obtained in ref 23; cited from earlier work
BChE [7] = target: T1, BChE; format: biochemical; settings: binding site competition ratio of each inhibitor (I1) in the presence of decamethonium (I2), >> 1 denotes competition at the same site
Experimental: This assay is designed to detect any ternary complex formed when two inhibitors are added to AChE or BChE simultaneously [15, 23, 34, 41, 42, 43]. The assay is conducted with a substrate like acetylthiocholine whose second-order hydrolysis at low substrate concentrations is diffusion controlled and thus is inhibited by ligands that bind to either the A-site or the P-site [15] […] Inhibitor competition was then assessed by determining ratios of kE at a fixed concentration ([I1]) of inhibitor 1 and various concentrations ([I2]) of inhibitor 2 (kE + I2) to kE at the same [I1] in the absence of [I2] (kE [I2] = 0) and plotting these ratios against [I2]. These plots were analyzed with Equation (5) (described in the Materials and Methods Section 4.4) to obtain the relative affinity of I1 in its binary complex with enzyme E to I1 in a ternary complex with I2 and E (K12/K1).
Determining rates of substrate hydrolysis in the presence of two inhibitors provides information that indicates whether these inhibitors are interacting with the same or different enzyme binding sites [15]. […]
In this equation, K1, K2, and K12 are the equilibrium dissociation constants for I1 with E, I2 with E, and I1 with the E I2 complex, respectively. Individual inhibition constants (e.g., K2) could be determined from Equation (5) with [I1] fixed at 0. […]

BChE [8] = settings: cited from earlier work
AChE [9] = settings: cited from earlier work
AChE [10] = settings: cited from earlier work; remark: listed apart in the source
BChE [11] = target: T1, BChE; set-up: method as in PMID 22901043; settings: cited from earlier work
BChE [12] = target: T1, BChE; settings: in the presence of thioflavin T; cited from earlier work

Chain of hBChE (Homo sapiens, UniProt P06276, N45Q/N483Q/N509Q/N514Q) (P06276 29-557 N45Q/N483Q/N509Q/N514Q): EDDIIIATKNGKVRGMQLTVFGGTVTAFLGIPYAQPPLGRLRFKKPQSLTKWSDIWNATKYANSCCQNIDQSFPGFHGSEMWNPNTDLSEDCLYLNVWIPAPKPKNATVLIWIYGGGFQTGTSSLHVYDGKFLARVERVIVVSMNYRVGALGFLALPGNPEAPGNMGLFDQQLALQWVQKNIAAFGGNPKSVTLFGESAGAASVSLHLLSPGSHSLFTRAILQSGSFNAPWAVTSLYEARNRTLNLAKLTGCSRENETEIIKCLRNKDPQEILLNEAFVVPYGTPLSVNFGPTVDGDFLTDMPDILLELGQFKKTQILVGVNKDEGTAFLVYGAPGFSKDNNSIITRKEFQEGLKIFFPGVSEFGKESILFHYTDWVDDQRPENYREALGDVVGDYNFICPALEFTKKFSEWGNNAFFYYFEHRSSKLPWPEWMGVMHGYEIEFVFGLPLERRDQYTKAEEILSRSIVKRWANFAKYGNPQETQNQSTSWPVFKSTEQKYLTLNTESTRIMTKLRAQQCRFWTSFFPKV
T2 sequence (P22303 32-574): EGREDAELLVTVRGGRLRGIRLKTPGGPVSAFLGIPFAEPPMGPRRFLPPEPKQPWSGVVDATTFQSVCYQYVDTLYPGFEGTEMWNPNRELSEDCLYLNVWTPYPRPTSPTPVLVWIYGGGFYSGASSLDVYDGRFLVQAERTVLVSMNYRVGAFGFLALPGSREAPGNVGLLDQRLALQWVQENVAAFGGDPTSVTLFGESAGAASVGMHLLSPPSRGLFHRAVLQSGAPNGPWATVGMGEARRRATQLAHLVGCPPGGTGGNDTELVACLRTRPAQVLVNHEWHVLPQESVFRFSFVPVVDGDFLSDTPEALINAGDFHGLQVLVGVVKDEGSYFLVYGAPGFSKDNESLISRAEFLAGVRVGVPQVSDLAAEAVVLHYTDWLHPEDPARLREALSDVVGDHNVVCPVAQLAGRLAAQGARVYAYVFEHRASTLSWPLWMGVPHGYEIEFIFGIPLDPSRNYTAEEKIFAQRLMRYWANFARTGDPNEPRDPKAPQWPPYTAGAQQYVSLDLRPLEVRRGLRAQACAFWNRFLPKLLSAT
T1 sequence (P06276 29-602): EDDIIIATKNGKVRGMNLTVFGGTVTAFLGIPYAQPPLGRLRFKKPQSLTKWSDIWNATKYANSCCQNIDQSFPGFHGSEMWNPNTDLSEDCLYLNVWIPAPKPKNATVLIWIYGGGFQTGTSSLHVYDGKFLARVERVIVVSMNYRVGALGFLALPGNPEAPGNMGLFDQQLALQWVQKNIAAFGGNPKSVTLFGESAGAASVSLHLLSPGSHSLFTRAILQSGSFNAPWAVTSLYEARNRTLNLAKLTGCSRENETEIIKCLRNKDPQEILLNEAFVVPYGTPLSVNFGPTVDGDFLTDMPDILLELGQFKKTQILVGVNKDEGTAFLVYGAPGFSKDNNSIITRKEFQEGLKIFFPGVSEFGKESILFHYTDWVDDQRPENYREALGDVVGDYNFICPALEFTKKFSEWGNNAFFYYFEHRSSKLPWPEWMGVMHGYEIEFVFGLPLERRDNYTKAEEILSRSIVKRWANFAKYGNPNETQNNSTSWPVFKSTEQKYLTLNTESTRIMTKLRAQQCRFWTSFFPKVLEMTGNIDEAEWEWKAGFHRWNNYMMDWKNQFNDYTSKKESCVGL

| SMILES | difference in KD values between AChE and BChE (hBChE [2]) | Kd (hBChE [3]) | n (±SD), binding stoichiometry (hBChE [3]) | ΔG (±SD), Gibbs free energy of binding (hBChE [3]) | ΔH (±SD), binding heat (hBChE [3]) | n (±SD), binding stoichiometry (hAChE [5]) | ΔG (±SD), Gibbs free energy of binding (hAChE [5]) | ΔH (±SD), binding heat (hAChE [5]) | IC50 (BChE [8]) | further results |
| --- | --- | --- | --- | --- | --- | --- | --- | --- | --- | --- |
| CCN(CC)C(C)CN1c2ccccc2Sc2ccccc21 (centres unmarked) [Ethopropazine, ethopropazine hydrochloride] | ~20 fold | 1.1 ± 0.1 µM | 1.0 ± 0.1 | -8.15 ± 0.048 kcal/mol | -10.4 ± 1.53 kcal/mol | – | – | – | – | difference in Ki between hAChE and hBChE (hBChE [1]): 9000 fold; n (±SD), binding stoichiometry (hBChE [3]; listed as ethopropazine): ~ 1 |
| C[N+](C)(C)CCCCCCCCCC[N+](C)(C)C [Decamethonium, decamethonium bromide] | – | – | – | – | – | – | – | – | – | Ki (BChE [4]): 4.5 ± 0.2 µM |
| Cc1ccc2c(c1)sc(-c1ccc(N(C)C)cc1)[n+]2C [Thioflavin-T, ThT chloride] | about 7 fold | 2.6 ± 0.5 µM | 2.2 ± 0.1 | -7.65 ± 0.14 kcal/mol | -2.72 ± 0.14 kcal/mol | 1 | -6.5 kcal/mol | -5.66 kcal/mol | – | Ki (BChE [4]; BChE 0.68 nM, butyrylthiocholine 5 µM, second-order dependence on inhibitor concentration, read-out: KI (fitted with Equation (4))): 1.61 ± 0.11 µM; KII (fitted with Equation (4)) (BChE [4]; BChE 0.68 nM, butyrylthiocholine 5 µM, second-order term): 5.84 ± 0.16 µM^2; KI12/KI1 (maximum for the affinity in the binary complex relative to that in the ternary complex) (BChE [4]; BChE, two molecules of inhibitor, maximum reached when KI1 = KI2): 0.56 ± 0.04; Kd (hAChE [5]): 17.7 µM; n (±SD), binding stoichiometry (hAChE [5]; listed as ThT): ~ 1; Ki (hAChE [6]): 3.9 ± 0.4 µM; K12/K1 (BChE [7]): >200 |
| NCCC1=CC2Cc3nc4cc(Cl)ccc4c(N)c3C(C1)C2 (centres unmarked) [huprine 19] | – | – | – | – | – | – | – | – | 0.9 µM | – |
| Nc1c2c(nc3cc(Cl)ccc13)C[C@H]1C=C(CCO)C[C@@H]2C1 [huprine W] | – | – | – | – | – | – | – | – | 1.2 µM | IC50 (AChE [9]): 0.0011 µM |
| CC[N+](C)(C)c1cccc(O)c1 [Edrophonium, edrophonium chloride] | ~20 fold | 27.2 ± 2.4 µM | 0.9 ± 0.1 | -6.24 ± 0.072 kcal/mol | -3.01 ± 0.406 kcal/mol | 0.8 ± 0.3 | -8.03 ± 0.19 kcal/mol | -6.31 ± 1.89 kcal/mol | – | n (±SD), binding stoichiometry (hAChE [5]; listed as edrophonium): ~ 1; AChE K12/K1 (AChE [10]; binding site competition ratio in the presence of thioflavin T, recalculated from data obtained in ref 23): 2.9 ± 0.2; AChE K12/K1 competition class (AChE [10]; in the presence of thioflavin T): NC (A K12/K1 ratio of ~1 indicates no competition at binding sites (NC)); Ki (BChE [11]; BChE, updated from data in ref 23): 49 ± 3 µM; Ki (BChE [11]; read-out: BChE KI, hBChE, recalculated from data obtained in ref 23): 49 ± 3 µM; BChE K12/K1 competition class (BChE [12]): PC (intermediate ratios indicate partial competition (PC)); n (±SD), binding stoichiometry (hBChE [3]; listed as edrophonium): ~ 1 |
